In US20240300943A1, “NOVEL SALTS OF HETEROCYCLIC COMPOUND AS PROTEIN KINASE INHIBITOR AND USES THEREOF” (HK INNO.N CORPORATION, priority 2021, published 2024):
One block for each molecule: values may come before it.

Assays:
Format in all cases: physicochemical
[1] = Measurement of water solubility; conditions: saturated solution shaken at room temperature for 24 hours
Experimental: A liquid phase was taken out of the solution and filtered using a 0.22 μm PVDF filter. The filtered liquid phase was diluted 10-fold for LC analysis.
LC analysis was performed by the following method.

[2] = Physical stability evaluation under stress conditions
Experimental: In order to evaluate physical stability, samples were packaged in the form of ((LPDE+N2)+silica gel 1 g+LDPE)+Al-Bag, and stored under stress conditions (60° C.±2° C./80% RH±5%) for 2/4 weeks before evaluation.
In table 2, initial is a result measured after preparation of salts, and S2W and S4W are results measured after two and four weeks while being exposed to stress conditions, respectively.

[3] = Photostability evaluation
Excerpt: Samples were packaged in LPDE bag, and stored under visible (1.2M Lux-h), UV (200 W-h/m2) and UV+visible conditions, respectively, and then evaluated.

[4] = Hygroscopicity evaluation; conditions: for Individual related material: in %
Excerpt: Samples were placed in a glass desiccator in which relative humidity was adjusted to 33%, 53%, 75%, and 93%, and then stored for two and four weeks to be evaluated.

Water solubility [1]: 1900 µg/mL
C.I quantitative ([2]; Initial): 40.3%
Content (anhydride, as anhydride) ([2]; Initial): 100.4%
Moisture ([2]; Initial): 0.67%
Purity: Individual related material ([2]; Initial): 0.13%
Purity: Total related material ([2]; Initial): 1.13%
C.I quantitative ([2]; S2W: 2 weeks at 60° C./80% RH): 40.3%
Content (anhydride, as anhydride) ([2]; S2W: 2 weeks at 60° C./80% RH): 101.9%
Purity: Individual related material ([2]; S2W: 2 weeks at 60° C./80% RH): 0.23%
Purity: Total related material ([2]; S2W: 2 weeks at 60° C./80% RH): 1.32%
C.I quantitative ([2]; S4W: 4 weeks at 60° C./80% RH): 40.6%
Content (anhydride, as anhydride) ([2]; S4W: 4 weeks at 60° C./80% RH): 101.9%
Moisture ([2]; S4W: 4 weeks at 60° C./80% RH): 0.98%
Purity: Individual related material ([2]; S4W: 4 weeks at 60° C./80% RH): 0.30%
Purity: Total related material ([2]; S4W: 4 weeks at 60° C./80% RH): 1.31%
Individual related material ([3]; Initial): 0.13%
Total related material ([3]; Initial): 1.13%
Individual related material ([3]; Solid, Control): 0.14%
Total related material ([3]; Solid, Control): 0.14%
Individual related material ([3]; Solid, UV (200 W-h/m2)): 0.13%
Total related material ([3]; Solid, UV (200 W-h/m2)): 0.27%
Individual related material ([3]; Solid, UV + Vis): 0.13%
Total related material ([3]; Solid, UV + Vis): 0.72%
Individual related material ([3]; Solid, UV + Vis Control): 0.14%
Total related material ([3]; Solid, UV + Vis Control): 0.14%
Individual related material ([3]; Solid, Vis (1.2M Lux-h)): 0.13%
Total related material ([3]; Solid, Vis (1.2M Lux-h)): 0.68%
Total related material ([4]; Initial): 1.13%
Water ([4]; Initial): 0.67%
Individual related material ([4]; Initial): 0.13
Total related material ([4]; relative humidity 33%, 2 W): 1.1%
Water ([4]; relative humidity 33%, 2 W): 0.56%
Individual related material ([4]; relative humidity 33%, 2 W): 0.14
Total related material ([4]; relative humidity 33%, 4 W): 1.07%
Water ([4]; relative humidity 33%, 4 W): 0.54%
Individual related material ([4]; relative humidity 33%, 4 W): 0.14
Total related material ([4]; relative humidity 53%, 2 W): 1.18%
Water ([4]; relative humidity 53%, 2 W): 0.80%
Individual related material ([4]; relative humidity 53%, 2 W): 0.15
Total related material ([4]; relative humidity 53%, 4 W): 1.04%
Water ([4]; relative humidity 53%, 4 W): 0.65%
Individual related material ([4]; relative humidity 53%, 4 W): 0.15
Total related material ([4]; relative humidity 75%, 2 W): 1.18%
Water ([4]; relative humidity 75%, 2 W): 1.44%
Individual related material ([4]; relative humidity 75%, 2 W): 0.15
Total related material ([4]; relative humidity 75%, 4 W): 1.18%
Water ([4]; relative humidity 75%, 4 W): 1.02%
Individual related material ([4]; relative humidity 75%, 4 W): 0.16
Total related material ([4]; relative humidity 93%, 2 W): 1.17%
Water ([4]; relative humidity 93%, 2 W): 2.03%
Individual related material ([4]; relative humidity 93%, 2 W): 0.16
Total related material ([4]; relative humidity 93%, 4 W): 1.15%
Water ([4]; relative humidity 93%, 4 W): 1.72%
Individual related material ([4]; relative humidity 93%, 4 W): 0.17
Compound: C[C@@H]1CN(C(=O)CC#N)CC=C1c1cc(NC(=O)C2CC2)nc2[nH]ccc12 [Example 4, (S)—N-(4-(1-(2-cyanoacetyl)-3-methyl-1,2,3,6-tetrahydropyridin-4-yl)-1H-pyrrolo[2,3-b]pyridin-6-yl)cyclopropanecarboxamide]

Water solubility [1]: 4600 µg/mL
Individual related material ([3]; Initial): 0.14%
Total related material ([3]; Initial): 0.64%
Individual related material ([3]; Solid, Control): 0.65%
Total related material ([3]; Solid, Control): 0.65%
Individual related material ([3]; Solid, UV (200 W-h/m2)): 1%
Total related material ([3]; Solid, UV (200 W-h/m2)): 1%
Individual related material ([3]; Solid, UV + Vis): 1.96%
Total related material ([3]; Solid, UV + Vis): 1.96%
Individual related material ([3]; Solid, UV + Vis Control): 0.78%
Total related material ([3]; Solid, UV + Vis Control): 0.78%
Individual related material ([3]; Solid, Vis (1.2M Lux-h)): 1.72%
Total related material ([3]; Solid, Vis (1.2M Lux-h)): 1.72%
Compound: C[C@@H]1CN(C(=O)CC#N)CC=C1c1cc(NC(=O)C2CC2)nc2[nH]ccc12 [Example 5, (S)—N-(4-(1-(2-cyanoacetyl)-3-methyl-1,2,3,6-tetrahydropyridin-4-yl)-1H-pyrrolo[2,3-b]pyridin-6-yl)cyclopropanecarboxamide]

Water solubility [1]: 900 µg/mL
Compound: C[C@@H]1CN(C(=O)CC#N)CC=C1c1cc(NC(=O)C2CC2)nc2[nH]ccc12 [Example 6, (S)—N-(4-(1-(2-cyanoacetyl)-3-methyl-1,2,3,6-tetrahydropyridin-4-yl)-1H-pyrrolo[2,3-b]pyridin-6-yl)cyclopropanecarboxamide]
